Measurements as given in ChEMBL document CHEMBL4177523, “Ser422 phosphorylation blocks human Tau cleavage by caspase-3: Biochemical implications to Alzheimer's Disease” (Bioorg Med Chem Lett, 2017).
Active and inactive are the calls of the source. No cut-off for these calls is given here. Square brackets hold non-standard residues; d marks the D form. Peptide text beside a SMILES is read from it. ξ: configuration not given here. ξpS = NC(COP(=O)(O)O)C(=O)O

Tests used:
[1] = target: T1, Caspase-3 (Homo sapiens) (UniProt P42574); assay: Substrate activity at recombinant human caspase-3 assessed as enzyme-mediated compound cleavage after 1 hr by RP-HPLC analysis
T1 sequence (whole entry): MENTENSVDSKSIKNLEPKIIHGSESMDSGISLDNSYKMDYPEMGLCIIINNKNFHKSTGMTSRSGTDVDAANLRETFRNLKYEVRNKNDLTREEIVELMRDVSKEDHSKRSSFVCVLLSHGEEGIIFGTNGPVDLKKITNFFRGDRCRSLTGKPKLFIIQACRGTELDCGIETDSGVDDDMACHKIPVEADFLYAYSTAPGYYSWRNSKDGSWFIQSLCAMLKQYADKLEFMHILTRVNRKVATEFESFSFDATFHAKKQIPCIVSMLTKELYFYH

[2] = target: T1, Caspase-3 (Homo sapiens); assay: Inhibition of recombinant human caspase-3 at 50 uM using fluorogenic peptide substrate Ac-DEVD-MCA after 30 mins incubation by spectrofluorometric method
[3] = Retention time of the compound by mass spectrometric analysis; format: physicochemical
[4] = target: T1, Caspase-3 (Homo sapiens); assay: Substrate activity at recombinant human caspase-3 assessed as Ac-STGSIDMVD-OH formation after 1 hr by MALDI-TOF/MS analysis
[5] = target: T1, Caspase-3 (Homo sapiens); assay: Substrate activity at recombinant human caspase-3 assessed as SPQL-CONH2 formation after 1 hr by RP-HPLC analysis
[6] = target: T1, Caspase-3 (Homo sapiens); assay: Substrate activity at recombinant human caspase-3 assessed as Ac-STGSIDMVD-OH formation after 1 hr by RP-HPLC analysis
[7] = target: T1, Caspase-3 (Homo sapiens); assay: Substrate activity at recombinant human caspase-3 assessed as SIDMVD formation after 1 hr by MALDI-TOF/MS analysis
[8] = target: T1, Caspase-3 (Homo sapiens); assay: Substrate activity at 3-fold excess recombinant human caspase-3 assessed as SPQLAT formation by RP-HPLC analysis; settings: TDE = time-dependent effect
[9] = target: T1, Caspase-3 (Homo sapiens); assay: Substrate activity at 3-fold excess recombinant human caspase-3 assessed as SIDMVD formation by RP-HPLC analysis; settings: TDE = time-dependent effect
[10] = target: T1, Caspase-3 (Homo sapiens); assay: Substrate activity at recombinant human caspase-3 assessed as SPQLAT-CONH2 formation after 1 hr by MALDI-TOF/MS analysis
[11] = target: T1, Caspase-3 (Homo sapiens); assay: Substrate activity at recombinant human caspase-3 assessed as SPQLAT-CONH2 formation after 1 hr by RP-HPLC analysis
[12] = target: T1, Caspase-3 (Homo sapiens); assay: Substrate activity at recombinant human caspase-3 assessed as SIDMVD formation after 1 hr by RP-HPLC analysis
[13] = target: T1, Caspase-3 (Homo sapiens); assay: Substrate activity at recombinant human caspase-3 assessed as enzyme-mediated compound cleavage after 1 hr in presence of casapase-3 inhibitor Ac-DQVD-aldehyde by RP-HPLC analysis

SMILES	Activity [1]	Retention_time [3] [min]	further results
CC(=O)N[C@@H](CC(=O)O)C(=O)N[C@@H](CCC(N)=O)C(=O)N[C@H](C(=O)N[C@H](C=O)CC(=O)O)C(C)C (Ac-DQVD-aldehyde)			inhibition [2]: 97.3%
CC[C@H](C)[C@H](NC(=O)[C@H](CO)NC(=O)CNC(=O)[C@@H](NC(=O)[C@H](CO)NC(C)=O)[C@@H](C)O)C(=O)N[C@@H](CC(=O)O)C(=O)N[C@@H](CCSC)C(=O)N[C@H](C(=O)N[C@@H](CC(=O)O)C(=O)O)C(C)C (Ac-STGSIDMVD-OH)		30.6	
CC[C@H](C)[C@H](NC(=O)[C@@H](N)CO)C(=O)N[C@@H](CC(=O)O)C(=O)N[C@@H](CCSC)C(=O)N[C@H](C(=O)N[C@@H](CC(=O)O)C(=O)O)C(C)C (H-SIDMVD-OH)		18.1	
CC(C)C[C@H](NC(=O)[C@H](CCC(N)=O)NC(=O)[C@@H]1CCCN1C(=O)[C@@H](N)CO)C(N)=O (H-SPQL-NH2)		19.5	
CC(C)C[C@H](NC(=O)[C@H](CCC(N)=O)NC(=O)[C@@H]1CCCN1C(=O)[C@@H](N)CO)C(=O)N[C@@H](C)C(=O)N[C@H](C(N)=O)[C@@H](C)O (H-SPQLAT-NH2)		25.7	

Now from value to compound, other results behind:

Activity [1]	Retention_time [3] [min]	SMILES	further results
Active		CC[C@H](C)[C@H](NC(=O)[C@H](CO)NC(=O)CNC(=O)[C@@H](NC(=O)[C@H](CO)NC(C)=O)[C@@H](C)O)C(=O)N[C@@H](CC(=O)O)C(=O)N[C@@H](CCSC)C(=O)N[C@H](C(=O)N[C@@H](CC(=O)O)C(=O)N[C@H](CO)C(=O)N1CCC[C@H]1C(=O)N[C@@H](CCC(N)=O)C(=O)N[C@@H](CC(C)C)C(=O)N[C@@H](C)C(N)=O)C(C)C	
inactive		CC[C@H](C)[C@H](NC(=O)[C@H](CO)NC(=O)CNC(=O)[C@@H](NC(=O)[C@H](CO)NC(C)=O)[C@@H](C)O)C(=O)N[C@@H](CC(=O)O)C(=O)N[C@@H](CCSC)C(=O)N[C@H](C(=O)N[C@H](CC(=O)O)C(=O)N[C@@H](CO)C(=O)N1CCC[C@H]1C(=O)N[C@@H](CCC(N)=O)C(=O)N[C@@H](CC(C)C)C(=O)N[C@@H](C)C(N)=O)C(C)C	
	31.8	CC[C@H](C)[C@H](NC(=O)[C@H](CO)NC(=O)CNC(=O)[C@@H](NC(=O)[C@H](CO)NC(C)=O)[C@@H](C)O)C(=O)N[C@@H](CC(=O)O)C(=O)N[C@@H](CCSC)C(=O)N[C@H](C(=O)N[C@@H](CC(=O)O)C(=O)N[C@@H](CO)C(=O)N1CCC[C@H]1C(=O)N[C@@H](CCC(N)=O)C(=O)N[C@@H](CC(C)C)C(N)=O)C(C)C (Ac-STGSIDMVDSPQL-NH2)	Activity [4]: Active; Activity [5]: Active; Activity [6]: Active
inactive		CC[C@H](C)[C@H](NC(=O)[C@H](CO)NC(=O)CNC(=O)[C@@H](NC(=O)[C@H](CO)NC(C)=O)[C@@H](C)O)C(=O)N[C@@H](CC(=O)O)C(=O)N[C@@H](CCSC)C(=O)N[C@H](C(=O)N[C@@H](CC(=O)O)C(=O)NC(COP(=O)(O)O)C(=O)N1CCC[C@H]1C(=O)N[C@@H](CCC(N)=O)C(=O)N[C@@H](CC(C)C)C(=O)N[C@@H](C)C(N)=O)C(C)C (some centres not stated) (Ac-STGSIDMVD[ξpS]PQLA-NH2)	
	27.9	CC[C@H](C)[C@H](NC(=O)[C@@H](N)CO)C(=O)N[C@@H](CC(=O)O)C(=O)N[C@@H](CCSC)C(=O)N[C@H](C(=O)N[C@@H](CC(=O)O)C(=O)N[C@@H](CO)C(=O)N1CCC[C@H]1C(=O)N[C@@H](CCC(N)=O)C(=O)N[C@@H](CC(C)C)C(=O)N[C@@H](C)C(=O)N[C@H](C(N)=O)[C@@H](C)O)C(C)C (H-SIDMVDSPQLAT-NH2)	Activity [7]: Active; Activity [8]: Tde; Activity [9]: Tde; Activity [10]: Active; Activity [11]: Active; Activity [12]: Active; Activity [13]: inactive
inactive	26.3	CC[C@H](C)[C@H](NC(=O)[C@@H](N)CO)C(=O)N[C@@H](CC(=O)O)C(=O)N[C@@H](CCSC)C(=O)N[C@H](C(=O)N[C@@H](CC(=O)O)C(=O)NC(COP(=O)(O)O)C(=O)N1CCC[C@H]1C(=O)N[C@@H](CCC(N)=O)C(=O)N[C@@H](CC(C)C)C(=O)N[C@@H](C)C(=O)N[C@H](C(N)=O)[C@@H](C)O)C(C)C (some centres not stated) (H-SIDMVD[ξpS]PQLAT-NH2)	
